Here are results for 13 compounds from ChEMBL document CHEMBL1201862, “PubChem BioAssay data set” (2004).

SMILES strings stand for the structures.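 48-hour exposure; five concentrations; linearly interpolated endpoints. At the GI50, growth is halved.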 Calls of active or inactive are those of the source. Rule as the data show it: active = GI50 up to about 1.1 µM and inactive = higher.

Test systems include UACC-257; DLD-1; HCT-15; M14; DMS-114; HCT-116; M19-MEL; SK-MEL-28; SNB-78; KM-20L2; HT-29; LOX IMVI; SK-OV-3; U-251; OVCAR-5; SK-MEL-5; HOP-92; A498.
Common to all, as to assay: NCI-60 cell line screen, 48 h

`c1ccc(-c2nnc(-c3nn(-c4ccccc4)c4nc5ccccc5nc34)o2)cc1`: the GI50 was 64.3 µM (inactive) in the experiment on UACC-257; 25.1 µM (inactive) with DLD-1; 43.5 µM with HCT-15; 79.1 µM (inactive) with M14; 28.8 µM (inactive) with DMS-114; 34.8 µM (inactive) with HCT-116. Also, the GI50 in the experiment on M19-MEL is 47.8 µM (inactive); in the experiment on SK-MEL-28, > 100 µM (inactive); in the experiment with SNB-78, > 100 µM (inactive); with KM-20L2, > 100 µM (inactive); in the experiment on HT-29, > 100 µM (inactive); with LOX IMVI, > 100 µM (inactive). The GI50 in the experiment on SK-OV-3 was > 100 µM (inactive); with U-251, 85.1 µM (inactive); in the experiment on OVCAR-5 it was > 100 µM (inactive).

On to `COC1(OC)C2(Cl)C3=CCCC=C3C1(Cl)C(Cl)=C2Cl`, for which the GI50 in the experiment on UACC-257 was 28.4 µM (inactive); with DLD-1, 28.9 µM (inactive); in the experiment on HCT-15 it was 27.5 µM; in the experiment on SK-MEL-5 it was 14.3 µM (inactive); with M14, 13.2 µM (inactive); with DMS-114, 18.1 µM (inactive). The GI50 in the experiment with HCT-116 was 17.1 µM (inactive); in the experiment on M19-MEL it was 18.8 µM (inactive); in the experiment with SK-MEL-28 it was 30.2 µM (inactive); in the experiment with HOP-92 it was 21.5 µM (inactive); with SNB-78 it was 31.8 µM (inactive); with KM-20L2, 23.2 µM (inactive). Besides, the GI50 was 20.6 µM (inactive) with HT-29; 15.3 µM (inactive) in the experiment with LOX IMVI; 26 µM (inactive) in the experiment with SK-OV-3; 30.3 µM (inactive) with U-251; 23.7 µM (inactive) in the experiment on OVCAR-5.

In the case of `COc1ccc(OC(C)C(=O)O)c2c1CCCC2=O` (stereo unspecified), the GI50 is > 100 µM (inactive) in the experiment with A498; > 100 µM (inactive) in the experiment on UACC-257; > 100 µM (inactive) in the experiment on DLD-1; > 100 µM in the experiment with HCT-15; > 100 µM (inactive) in the experiment with SK-MEL-5; > 100 µM (inactive) in the experiment with M14. Besides, the GI50 in the experiment with DMS-114 was > 100 µM (inactive); in the experiment with HCT-116, > 100 µM (inactive); in the experiment with M19-MEL, > 100 µM (inactive); in the experiment with SK-MEL-28, > 100 µM (inactive); in the experiment on SNB-78, > 100 µM (inactive); with KM-20L2, < 0.01 µM (active). The GI50 with HT-29, with LOX IMVI, in the experiment with SK-OV-3, with U-251 and with OVCAR-5 was > 100 µM (inactive) throughout.

As for `CCN(CC)CCCn1cnc2ncccc2c1=O`, the GI50 in the experiment with DLD-1, in the experiment with SK-MEL-5, in the experiment with M14, with DMS-114, in the experiment on HCT-116 and in the experiment on M19-MEL was > 100 µM (inactive) in each case. Besides, the GI50 with SK-MEL-28, in the experiment on HOP-92, with SNB-78, in the experiment on HT-29, with LOX IMVI and with SK-OV-3 was > 100 µM (inactive) throughout. The GI50 in the experiment on U-251 and in the experiment with OVCAR-5 was > 100 µM (inactive) each time.

`COc1ccc2c(c1)[n+]([O-])c(-c1ccccc1Cl)c(N)[n+]2[O-]`: the GI50 with A498 was > 100 µM (inactive); in the experiment with UACC-257, 36.6 µM (inactive); in the experiment with DLD-1 it was > 100 µM (inactive); in the experiment on HCT-15 it was 39.9 µM; in the experiment with SK-MEL-5 it was 39.8 µM (inactive); with M14, 73.1 µM (inactive). The GI50 was 32.8 µM (inactive) with DMS-114; > 100 µM (inactive) with HCT-116; 69.8 µM (inactive) in the experiment with M19-MEL; > 100 µM (inactive) with SK-MEL-28; > 100 µM (inactive) in the experiment on HOP-92; > 100 µM (inactive) in the experiment with SNB-78. Besides, the GI50 in the experiment with KM-20L2 was 38.8 µM (inactive); in the experiment with HT-29, 62.5 µM (inactive); in the experiment with SK-OV-3, > 100 µM (inactive); in the experiment on U-251, 69.2 µM (inactive); in the experiment with OVCAR-5, > 100 µM (inactive).

On to `COC1C(OC(=S)Nc2ccccc2)c2ccccc2N1C(C)=O` (stereo unspecified), for which the GI50 with A498 is > 100 µM (inactive); in the experiment on UACC-257 it was > 100 µM (inactive); in the experiment with DLD-1, 90.2 µM (inactive); in the experiment on HCT-15 it was 52.1 µM; with M14, 89.3 µM (inactive); with DMS-114 it was 60.7 µM (inactive). The GI50 in the experiment with HCT-116 is > 100 µM (inactive); in the experiment on M19-MEL it was > 100 µM (inactive); in the experiment with SK-MEL-28, > 100 µM (inactive); with HOP-92, 13.7 µM (inactive); with SNB-78, > 100 µM (inactive); in the experiment on KM-20L2, 57.4 µM (inactive). Besides, the GI50 with HT-29 was 99.1 µM (inactive); in the experiment on U-251, > 100 µM (inactive).

On to `O=[N+]([O-])c1cccc(C2N3CCCCC3[C@@H]3c4[nH]c5ccccc5c4CCN23)c1` (stereo partly specified), for which the GI50 with A498 was 15 µM (inactive); in the experiment on UACC-257 it was 14 µM (inactive); in the experiment with DLD-1, 12.3 µM (inactive); in the experiment on HCT-15, 10.4 µM; in the experiment on SK-MEL-5, 14.2 µM (inactive); in the experiment on M14, 14.5 µM (inactive). Also, the GI50 is 6.9 µM (inactive) with DMS-114; 11.9 µM (inactive) with M19-MEL; 16.3 µM (inactive) in the experiment with SK-MEL-28; 16 µM (inactive) with HOP-92; 9.79 µM (inactive) in the experiment with SNB-78; 11 µM (inactive) in the experiment on KM-20L2. The GI50 with HT-29 is 6.82 µM (inactive); with SK-OV-3, 17.8 µM (inactive); in the experiment with U-251 it was 14.1 µM (inactive); in the experiment on OVCAR-5, 16.9 µM (inactive).

For `CN(C)/C(=N/C(=S)Nc1ccccc1)SCc1ccccc1`, the GI50 with A498 is 83.8 µM (inactive); with UACC-257, 36.6 µM (inactive); with DLD-1, 44.3 µM (inactive); in the experiment with HCT-15, 57.5 µM; in the experiment with SK-MEL-5, 3.14 µM (inactive); with M14 it was 67.8 µM (inactive). Further, the GI50 with DMS-114 was 9.93 µM (inactive); in the experiment on M19-MEL, 14.7 µM (inactive); in the experiment on SK-MEL-28, 42.2 µM (inactive); with SNB-78, > 100 µM (inactive); in the experiment on HT-29, 3.88 µM (inactive); with LOX IMVI it was 42 µM (inactive). Also, the values for the GI50 in the experiment with SK-OV-3, in the experiment with U-251 and in the experiment on OVCAR-5 were > 100 µM (inactive), 49.2 µM (inactive) and > 100 µM (inactive), respectively.

Take `COc1cc(/C=C2\C(=O)N(C(=O)c3ccc(NC(C)=O)cc3)N=C2C)ccc1O`: the GI50 in the experiment on UACC-257, with DLD-1, in the experiment with SK-MEL-5, in the experiment on M14, with DMS-114 and in the experiment on HCT-116 was > 100 µM (inactive) each time. Further, the GI50 in the experiment with M19-MEL, with SK-MEL-28, with SNB-78, with HT-29, in the experiment with LOX IMVI and with OVCAR-5 was > 100 µM (inactive) in each case.

As to `CC(=O)NC1C(OCc2ccccc2)OC(COC(=O)CCCCCNc2ccc([N+](=O)[O-])c3[nH]c4ccc(O)cc4c(=O)c23)C(O)C1OC(C)C(=O)N[C@@H](C)C(=O)N[C@H](CCC(=O)OCc1ccccc1)C(N)=O` (stereo partly specified), the GI50 with A498 is 2.1 µM (inactive); in the experiment on UACC-257 it was 2.45 µM (inactive); in the experiment on DLD-1 it was 1.8 µM (inactive); in the experiment with HCT-15 it was 0.745 µM; in the experiment with SK-MEL-5, 8.53 µM (inactive); with M14, 1.49 µM (inactive). For the same compound, the GI50 in the experiment on HCT-116 was 0.321 µM (active); with M19-MEL, 5.68 µM (inactive); in the experiment with SK-MEL-28, 2.69 µM (inactive); in the experiment on HOP-92, 0.879 µM (active); in the experiment on SNB-78 it was 3.16 µM (inactive); with KM-20L2, 0.234 µM (active). The GI50 with HT-29 was 0.401 µM (active); with LOX IMVI it was 2.39 µM (inactive); in the experiment on SK-OV-3, 2.99 µM (inactive); with U-251, 2.45 µM (inactive); in the experiment with OVCAR-5, 1.06 µM (active).

With `CCc1ccccc1NC(=O)C1=C(C)NC(C)=C(C(=O)Nc2ccccc2CC)C1c1ccc(NC(C)=O)cc1`, the GI50 is 36.3 µM (inactive) with UACC-257; 26.5 µM (inactive) with DLD-1; 38.1 µM (inactive) in the experiment with SK-MEL-5; 39 µM (inactive) in the experiment with M14; 28.1 µM (inactive) in the experiment on DMS-114; 35.2 µM (inactive) in the experiment on HCT-116. Also, the GI50 in the experiment on M19-MEL was 32.7 µM (inactive); in the experiment on SK-MEL-28, 22.2 µM (inactive); in the experiment with HOP-92 it was 25.8 µM (inactive); with SNB-78 it was 33.3 µM (inactive); in the experiment with KM-20L2, 16.4 µM (inactive); with HT-29 it was 37.7 µM (inactive). Moreover, the GI50 is 16.1 µM (inactive) with LOX IMVI, > 100 µM (inactive) in the experiment with SK-OV-3, 53.6 µM (inactive) with U-251 and > 100 µM (inactive) in the experiment on OVCAR-5.

On to `C/C(=N/OCCC(=O)O)C1CC1`, for which the GI50 with DLD-1 was > 100 µM (inactive); in the experiment on HCT-15, > 100 µM; with SK-MEL-5, > 100 µM (inactive); with M14, > 100 µM (inactive); in the experiment with DMS-114, > 100 µM (inactive); in the experiment on HCT-116, > 100 µM (inactive). Also, the GI50 in the experiment on M19-MEL, in the experiment on SK-MEL-28, in the experiment with HOP-92, with SNB-78, in the experiment on KM-20L2 and with HT-29 was > 100 µM (inactive) each time. For the same compound, the GI50 in the experiment with LOX IMVI, in the experiment with SK-OV-3 and in the experiment with U-251 was > 100 µM (inactive) in each case.

Turning to `CCOc1ccccc1/N=N/c1c(-c2ccccc2)nn(C(=O)CC(=O)Nc2cccc(C)c2)c1-c1ccccc1`, the GI50 in the experiment with UACC-257 was > 100 µM (inactive); in the experiment with DLD-1, 62.8 µM (inactive); with SK-MEL-5, > 100 µM (inactive); in the experiment on M14 it was > 100 µM (inactive); in the experiment with DMS-114, 44.8 µM (inactive); in the experiment with HCT-116, > 100 µM (inactive). Moreover, the GI50 in the experiment on M19-MEL was > 100 µM (inactive); in the experiment on SK-MEL-28, > 100 µM (inactive); in the experiment on HOP-92, > 100 µM (inactive); in the experiment with SNB-78, > 100 µM (inactive); with KM-20L2 it was > 100 µM (inactive); in the experiment with HT-29, 39.6 µM (inactive). Also, the GI50 with LOX IMVI, in the experiment with SK-OV-3, in the experiment with U-251 and with OVCAR-5 was > 100 µM (inactive) throughout.
